Data on 14 molecules can be found in PubChem BioAssay AID328 (DTP/NCI, 2004).

Values joined by “and” are separate entries in the source; they are usually repeats but may differ in a detail not shown here. Equal entries are not always repeated. Inconclusive results and toxic doses are left out.

The assay deals with BDF1 mice, P388 leukemia ip, median survival T/C. In words: NCI In Vivo Anticancer Drug Screen. Data for tumor model P388 Leukemia (intraperitoneal) in B6D2F1 (BDF1) mice. The conditions noted are these: endpoint: median survival time, higher = longer survival. The essentials:
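Transplantable tumour in mice; compound vs vehicle dosing; survival scored; ratio of treated to control reported.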

Setting [1] is: dose: 50.0 mg/kg/injection, schedule: Q01DX009 (ip), vehicle: Klucel (hydroxypropylcellulose) (HPC).
Setting [2] is: dose: 25.0 mg/kg/injection, schedule: Q04DX003 (ip), vehicle: saline with Tween-80.
Where [3] appears, read: dose: 50.0 mg/kg/injection, schedule: Q04DX003 (ip), vehicle: saline with Tween-80.
Setting [4] is: dose: 100.0 mg/kg/injection, schedule: Q01DX001 (ip), vehicle: Klucel (hydroxypropylcellulose) (HPC).
Where [5] appears, read: dose: 200.0 mg/kg/injection, schedule: Q01DX001 (ip), vehicle: Klucel (hydroxypropylcellulose) (HPC).
Setting [6] is: dose: 12.5 mg/kg/injection, schedule: Q01DX009 (ip), vehicle: saline with Tween-80.
Setting [7] is: dose: 12.5 mg/kg/injection, schedule: Q04DX003 (ip), vehicle: saline with Tween-80.
Where [8] appears, read: dose: 25.0 mg/kg/injection, schedule: Q01DX009 (ip), vehicle: saline with Tween-80.
Where [9] appears, read: dose: 7.3 mg/kg/injection, schedule: Q01DX009 (ip), vehicle: saline with Tween-80.

Turning to `OC(CBr)C(O)C(O)C(O)CBr` (stereo not given), the T/C was 105 % of control under setting [1]; 104 % of control (dose: 62.5 mg/kg/injection, schedule: Q01DX010 (ip), vehicle: saline); 120 % of control (dose: 125.0 mg/kg/injection, schedule: Q01DX001 (ip), vehicle: carboxymethylcellulose (CMC)); 105 % of control (dose: 125.0 mg/kg/injection, schedule: Q01DX010 (ip), vehicle: carboxymethylcellulose (CMC)); 108 % of control (dose: 125.0 mg/kg/injection, schedule: Q01DX010 (ip), vehicle: saline); 110 % of control (dose: 250.0 mg/kg/injection, schedule: Q01DX010 (ip), vehicle: carboxymethylcellulose (CMC)). The T/C (dose: 250.0 mg/kg/injection, schedule: Q01DX010 (ip), vehicle: saline) was 91 % of control; the T/C (dose: 400.0 mg/kg/injection, schedule: Q01DX009 (ip), vehicle: Klucel (hydroxypropylcellulose) (HPC)) is 87 % of control; the T/C (dose: 1000.0 mg/kg/injection, schedule: Q01DX001 (ip), vehicle: carboxymethylcellulose (CMC)) was 170 % of control.
`O=[N+]([O-])c1ccccc1N=P(c1ccccc1)(c1ccccc1)c1ccccc1`: the T/C (dose: 50.0 mg/kg/injection, schedule: Q01DX009 (ip), vehicle: DMSO) was 109 % of control; the T/C (dose: 50.0 mg/kg/injection, schedule: Q04DX003 (ip), vehicle: DMSO) was 100 % of control; the T/C (dose: 100.0 mg/kg/injection, schedule: Q01DX009 (ip), vehicle: DMSO) is 104 % of control; the T/C (dose: 100.0 mg/kg/injection, schedule: Q04DX003 (ip), vehicle: DMSO) was 104 % of control; the T/C (dose: 200.0 mg/kg/injection, schedule: Q04DX003 (ip), vehicle: DMSO) was 90 % of control.
With `c1ccc(COC2CN3CCC2CC3)cc1` (stereo not given), the T/C under setting [2] is 122 % of control and the T/C under setting [3] was 100 % of control.
As to `CC(=O)N(C)C(C(=O)N1CC(C)CC1C(=O)N(C)C1C(=O)NC(CC(C)C)C(=O)N2CC(C)CC2C(=O)NC(CC(C)C)C(=O)N(C)C(C(C)C)C(=O)N2CCCC2C(=O)N(C)C(CC(C)C)C(=O)NCC(=O)OC1C)C(C)C` (stereo not given), the T/C runs as follows: (dose: 37.5 mg/kg/injection, schedule: Q01DX009 (ip), vehicle: Klucel (hydroxypropylcellulose) (HPC)) 107 % of control; (dose: 75.0 mg/kg/injection, schedule: Q01DX009 (ip), vehicle: Klucel (hydroxypropylcellulose) (HPC)) 107 % of control.
As to `Nc1nc(=S)c2[nH]c(N=Nc3ccc(S(=O)(=O)Nc4nccs4)cc3)nc2[nH]1`, the T/C was 115 % of control (dose: 25.0 mg/kg/injection, schedule: Q01DX001 (ip), vehicle: Klucel (hydroxypropylcellulose) (HPC)); 117 % of control under setting [4]; 120 % of control under setting [5].
As to `CSc1nc([N+](=O)[O-])c2cnccn12`, the T/C is, setting by setting: (dose: 5.0 mg/kg/injection, schedule: Q04DX003 (ip), vehicle: saline with Tween-80) 103 % of control; (dose: 6.25 mg/kg/injection, schedule: Q01DX009 (ip), vehicle: saline with Tween-80) 97 % of control; (dose: 10.0 mg/kg/injection, schedule: Q04DX003 (ip), vehicle: saline with Tween-80) 99 % of control; under setting [6], 99 % of control; under setting [7], 101 % of control; (dose: 20.0 mg/kg/injection, schedule: Q04DX003 (ip), vehicle: saline with Tween-80) 90 % of control. For the same molecule, the T/C was 96 % of control under setting [8]; 92 % of control under setting [2]; 114 % of control (dose: 40.0 mg/kg/injection, schedule: Q04DX003 (ip), vehicle: saline with Tween-80); 89 % of control under setting [3].
As for `COC(=O)N1c2ccccc2C=CC1C#N` (stereo not given), the T/C under setting [6] is 100 % of control; the T/C under setting [8] is 90 % of control and 100 % of control; the T/C under setting [2] is 100 % of control; the T/C (dose: 50.0 mg/kg/injection, schedule: Q01DX009 (ip), vehicle: saline with Tween-80) was 90 % of control; the T/C under setting [3] was 109 % of control; the T/C (dose: 100.0 mg/kg/injection, schedule: Q01DX009 (ip), vehicle: saline with Tween-80) was 100 % of control. Besides, the T/C (dose: 100.0 mg/kg/injection, schedule: Q04DX003 (ip), vehicle: saline with Tween-80) is 100 % of control.
Regarding `CNC(=N)c1ccc(NC(=N)c2ccc(NC(=O)Nc3ccc(C(=N)Nc4ccc(C(=N)NC)cc4)cc3)cc2)cc1`, the T/C runs as follows: (dose: 6.0 mg/kg/injection, schedule: Q01DX009 (ip), vehicle: saline with Tween-80) 216 % of control; (dose: 8.0 mg/kg/injection, schedule: Q01DX009 (ip), vehicle: saline with Tween-80) 172 % of control and 214 % of control; (dose: 12.0 mg/kg/injection, schedule: Q01DX009 (ip), vehicle: saline with Tween-80) 241 % of control and 204 % of control and 214 % of control; under setting [7], 122 % of control.
`BrCC12CCC1(CBr)COC2` (stereo not given): the T/C is 107 % of control under setting [4]; 92 % of control under setting [5]; 100 % of control (dose: 400.0 mg/kg/injection, schedule: Q01DX001 (ip), vehicle: Klucel (hydroxypropylcellulose) (HPC)).
Turning to `C[n+]1c2ccccc2nc2c(N)cc(N)cc21`, the T/C was 115 % of control (dose: 4.8 mg/kg/injection, schedule: Q01DX009 (ip), vehicle: saline with Tween-80); 115 % of control under setting [9]; 154 % of control (dose: 26.0 mg/kg/injection, schedule: Q01DX009 (ip), vehicle: saline with Tween-80); 154 % of control (dose: 41.0 mg/kg/injection, schedule: Q01DX009 (ip), vehicle: saline with Tween-80); 185 % of control (dose: 41.0 mg/kg/injection, schedule: Q01DX009 (ip), vehicle: water).
Regarding `NNC(=O)NC(=O)NN`, the T/C was 104 % of control (dose: 50.0 mg/kg/injection, schedule: Q01DX009 (ip), vehicle: saline); 113 % of control (dose: 100.0 mg/kg/injection, schedule: Q04DX003 (ip), vehicle: saline); 113 % of control (dose: 200.0 mg/kg/injection, schedule: Q04DX003 (ip), vehicle: saline).
For `C=C/C(C)=C/[C@H](C)C(=O)C[C@H](O)CC1CC(=O)NC(=O)C1`, the T/C is, setting by setting: under setting [9], 111 % of control; (dose: 11.0 mg/kg/injection, schedule: Q01DX009 (ip), vehicle: saline with Tween-80) 121 % of control; (dose: 16.5 mg/kg/injection, schedule: Q01DX009 (ip), vehicle: saline with Tween-80) 171 % of control; under setting [8], 123 % of control and 124 % of control; (dose: 37.5 mg/kg/injection, schedule: Q01DX009 (ip), vehicle: saline with Tween-80) 152 % of control; (dose: 75.0 mg/kg/injection, schedule: Q01DX009 (ip), vehicle: saline with Tween-80) 180 % of control.
Turning to `CCOC(=O)Nc1ccc2c(c1)/C(=N\NC(N)=S)c1ccccc1-2`, the T/C runs as follows: (dose: 0.37 mg/kg/injection, schedule: Q01DX009 (ip), vehicle: gum acacia) 120 % of control; (dose: 0.75 mg/kg/injection, schedule: Q01DX009 (ip), vehicle: gum acacia) 108 % of control; (dose: 1.5 mg/kg/injection, schedule: Q01DX009 (ip), vehicle: gum acacia) 96 % of control and 108 % of control; (dose: 3.0 mg/kg/injection, schedule: Q04DX003 (ip), vehicle: gum acacia) 92 % of control; (dose: 6.0 mg/kg/injection, schedule: Q04DX003 (ip), vehicle: gum acacia) 100 % of control; under setting [1], 86 % of control. Besides, the T/C (dose: 100.0 mg/kg/injection, schedule: Q01DX009 (ip), vehicle: Klucel (hydroxypropylcellulose) (HPC)) is 90 % of control; the T/C (dose: 100.0 mg/kg/injection, schedule: Q04DX003 (ip), vehicle: Klucel (hydroxypropylcellulose) (HPC)) is 86 % of control; the T/C under setting [5] was 86 % of control; the T/C (dose: 200.0 mg/kg/injection, schedule: Q01DX009 (ip), vehicle: Klucel (hydroxypropylcellulose) (HPC)) was 100 % of control; the T/C (dose: 200.0 mg/kg/injection, schedule: Q04DX003 (ip), vehicle: Klucel (hydroxypropylcellulose) (HPC)) is 100 % of control; the T/C (dose: 400.0 mg/kg/injection, schedule: Q04DX003 (ip), vehicle: Klucel (hydroxypropylcellulose) (HPC)) is 109 % of control. In addition, the T/C (dose: 400.0 mg/kg/injection, schedule: Q04DX003 (ip), vehicle: gum acacia) was 100 % of control.
In the case of `C=C1CCN2CCCC12` (stereo not given), the T/C is, setting by setting: (dose: 20.0 mg/kg/injection, schedule: Q01DX010 (ip), vehicle: carboxymethylcellulose (CMC)) 110 % of control; (dose: 40.0 mg/kg/injection, schedule: Q01DX010 (ip), vehicle: carboxymethylcellulose (CMC)) 100 % of control; (dose: 80.0 mg/kg/injection, schedule: Q01DX010 (ip), vehicle: carboxymethylcellulose (CMC)) 110 % of control.
